What was measured:
[1] = system: p48 SIP kinase (precipitation by 4G10 antibody); test: Immunoprecipitation-kinase activity assay with 4G10 antibody and phospho-amino acid competitors; format: binding, Nicotiana tabacum cv Xanthi nc; details: 1 mM competitor
Method: About 25 μL packed volume of protein A-agarose was added, and the incubation was continued for another 2 hours. Agarose bead-protein complexes were pelleted by brief centrifugation. After washing with immunoprecipitation buffer three times, 1× SDS sample buffer was added and the sample boiled for 3 minutes. After centrifugation, the supernatant fraction was electrophoresed on 10% SDS-PAGE gel, and the in-gel kinase assay was performed.

[2] = system: 44 kDa kinase; test: Activation of 44 kDa kinase in tobacco leaves; format: in vivo, N. tabacum cv Xanthi nc; details: SA treatment of tobacco plants
Method: (§1) Tobacco plants (N. tabacum cv Xanthi nc) were grown at 22° C. in a growth room programmed for a 14-hr light cycle. Plants approximately 7-8 weeks old were used for experiments. For temperature-shift experiments, plants were transferred to a 32° C. chamber one day before inoculation. TMV strain U1 was used at a concentration of 1 μg/mL in 50 mM phosphate buffer, pH 7.0; mock inoculation was done with buffer only. After 48 hours infected plants were shifted back to 22° C. and leaf discs (1 cm in diameter) were taken at the indicated times. For water or SA treatment, one leaf from each plant was injected with solution using a syringe until the entire leaf was infiltrated.

[3] = system: the two major H2 O2 -scavenging enzymes; details: Chen et al., 1993; Durner and Klessig, 1995; cited from earlier work
[4] = system: kinase activities in extracts from SA-treated cells (casein, histone, or BSA as substrate); test: In-gel kinase activity assay with casein, histone or BSA as substrate in extracts of treated tobacco suspension cells; format: cell-based, Nicotiana tabacum cv Xanthi nc
[5] = system: phosphotyrosine-containing 48 kDa protein; test: Immunoblot analysis with anti-phosphotyrosine antibody 4G10 of treated cell extracts; format: cell-based, Nicotiana tabacum cv Xanthi nc; details: 250 μM SA or 2 mM H2 O2; FIG. 4A
Method: (§2) The cell suspension culture was derived from callus tissue originated from leaves of Nicotiana tabacum cv Xanthi nc and grown in MS medium supplemented with 1 mg/L α-naphthaleneacetic acid, 0.1 mg/L 2,4-dichlorophenoxyacetic acid, 0.1 mg/L benzyladenine, and 3% sucrose. Log phase cells were used three days after a 1:10 dilution. Treatment with H2 O2, SA and its analogues was performed in the original flasks in the dark to avoid any stresses associated with transfer. At various times, 10 mL cells (approximately 0.2 to 0.3 g fresh weight of cells) were harvested by filtration. The cells were quickly frozen in liquid nitrogen and stored at -80° C. until analysis.
(§3) Protein extracts were separated by SDS-PAGE on 10% acrylamide gels, and the proteins were transferred to nitrocellulose membrane by semidry electroblotting. The membrane was blocked for 2 hours in TBS buffer (20 mM Tris, pH 7.5, 150 mM NaCl, 0.1% Tween 20, 0.1 mM Na3 VO4) with 10% BSA at room temperature, and then incubated with the phosphotyrosine-specific monoclonal antibody 4G10 (Upstate Biotechnology Incorporated, NY) in TBS buffer with BSA for 1 hr. After the blot was incubated with horseradish peroxidase-conjugated secondary antibody, the complexes were visualized using an enhanced chemiluminescence kit (DuPont, MA) following the manufacture's instructions.

[6] = system: p48 SIP kinase; test: In-gel kinase activity assay (MBP substrate) in extracts of treated tobacco suspension cells: activation of p48 SIP kinase; format: cell-based, Nicotiana tabacum cv Xanthi nc
Method: as §2
Leaf discs were first ground to a fine powder in 1.5 ml microcentrifuge tubes using small plastic pestles. After adding 0.25 mL extraction buffer (100 mM Hepes, pH 7.5, 5 mM EDTA, 5 mM EGTA, 10 mM DTT, 10 mM Na3 VO4, 10 mM NaF, 50 mM β-glycerolphosphate, 1 mM phenylmethylsulfonyl fluoride, 5 μg/mL antipain, 5 μg/mL aprotinin, 5 μg/mL leupeptin, 10% glycerol, 7.5% polyvinylpolypyrrolidone), the mixture was sonicated for 15 seconds with a W-375 Sonicator (Heat System-Ultrasonics, Inc., N.Y.) fitted with a microprobe at setting 4 and 80% duty cycle. To prepare extracts from treated cells, cells were mixed with two volumes (w/v) of extraction buffer and were then sonicated twice for 15 seconds each in 1.5 mL microcentrifuge tube. After centrifugation at 13,000 rpm for 20 minutes, supernatants were transferred into clean tubes, quickly frozen in liquid nitrogen and stored at -80° C.
The in-gel kinase assay was performed as described previously (Zhang et al., 1993). Extracts containing 10 μg protein were electrophoresed on 10% SDS-polyacrylamide gels imbedded with either 1 mg/mL of casein, 1 mg/mL histone (Type III-SS, Sigma, MO), 1 mg/mL BSA, or 0.25 mg/mL of MBP in the separating gel as substrate for the kinase. After electrophoresis, SDS was removed by washing the gel with washing buffer (25 mM Tris, pH 7.5, 0.5 mM DTT, 0.1 mM Na3 VO4, 5 mM NaF, 0.5 mg/mL BSA, 0.1% Triton X-100 [v/v]). The buffer was changed three times, each for 30 minutes at room temperature. The kinases were allowed to renature in 25 mM Tris, pH 7.5, 1 mM DTT, 0.1 mM Na3 VO4, 5 mM NaF at 4° C. overnight with three changes of buffer. The gel was then incubated at room temperature in 30 mL reaction buffer (25 mM Tris, pH 7.5, 2 mM EGTA, 12 mM MgCl2, 1 mM DTT, 0.1 mM Na3 VO4) with 200 nM ATP plus 50 μCi γ-^32 P-ATP (3000 Ci/mmole) for 60 minutes. The reaction was stopped by transferring the gel into 5% TCA (w/v)/1% NaPPi (w/v). The unincorporated γ-^32 P-ATP was removed by washing in the same solution for at least 6 hours with 5 changes of buffer. The gel was dried onto 3 MM paper and exposed to Kodak XAR-5 film. Prestained size markers (Bio-Rad, CA) were used to calculate the size of the kinases. Quantitation of the relative kinase activities were done using a phosphoimager (Molecular Dynamics Inc., CA).

[7] = system: p48 SIP kinase; test: Activation of p48 SIP kinase in tobacco leaves after injection; format: in vivo, N. tabacum cv Xanthi nc
Method: as §1

[8] = system: PR-1 gene expression; details: Conrath et al., 1997; cited from earlier work
[9] = system: p48 SIP kinase; test: Treatment of p48 SIP kinase with phosphatases; format: biochemical, tobacco; details: okadaic acid against PP1; Na3 VO4 against YOP
Method: FIG. 13 is a histogram showing inactivation of p48 SIP kinase by phosphatase treatment. Approximately 20 units of the SIP kinase was treated with either the serine/threonine-specific phosphatase PPI (0.1 units) or the tyrosine-specific protein phosphatase YOP (0.5 units) for 10 min (bars 2 to 5) or 30 min (bars 7 to 10) at 30° C. in the presence or absence of a phosphatase inhibitor. Bars 1 and 6 represent the control without phosphatase or phosphatase inhibitor; bars 2 and 7, PPI; bars 3 and 8, PPI plus okadaic acid (1 μM); bars 4 and 9, YOP; bars 5 and 10, YOP plus Na3 VO4 (1 mM). Before assaying for SIP kinase activity, the phosphatase inhibitors were added to all of the reactions to the same final concentrations.
The phosphatase inhibitors present in the purified p48 SIP kinase preparation were first removed by dialysis against buffer B lacking β-glycerophosphate and Na3 VO4 in a 0.5-mL 10 K dialysis cassette (Slide-A-Lyzer; Pierce). For treatment with serine/threonine protein phosphatase PP1 (Calbiochem, San Diego, Calif.), MnCl2, DTT, and BSA were added to aliquots of the SIP kinase preparation to final concentrations of 200 μm, 5 mM and 100 μg/mL respectively. Then 0.1 unit of PP1 was added, and the reaction mixture was incubated at 30° C. in the presence or absence of 1 μM of the phosphatase inhibitor okadaic acid (Calbiochem). […]

[10] = system: TMV; details: Dunigan et al., 1995; cited from earlier work
[11] = system: tyrosine-phosphorylated proteins; details: in response to H2 O2
Method: as §2, §3

[12] = system: 58 kDa, 52 kDa, and 40 kDa kinases; details: 1 mM and 2 mM
Method: as §2
Leaf discs were first ground to a fine powder in 1.5 ml microcentrifuge tubes using small plastic pestles. […]
The in-gel kinase assay was performed as described previously (Zhang et al., 1993). […] Quantitation of the relative kinase activities were done using a phosphoimager (Molecular Dynamics Inc., CA).

[13] = system: 200 kDa and 75 kDa kinase activity bands; details: long exposure of autoradiogram
Method: as §2
The in-gel kinase assay was performed as described previously (Zhang et al., 1993). Extracts containing 10 μg protein were electrophoresed on 10% SDS-polyacrylamide gels imbedded with either 1 mg/mL of casein, 1 mg/mL histone (Type III-SS, Sigma, MO), 1 mg/mL BSA, or 0.25 mg/mL of MBP in the separating gel as substrate for the kinase. After electrophoresis, SDS was removed by washing the gel with washing buffer (25 mM Tris, pH 7.5, 0.5 mM DTT, 0.1 mM Na3 VO4, 5 mM NaF, 0.5 mg/mL BSA, 0.1% Triton X-100 [v/v]). The buffer was changed three times, each for 30 minutes at room temperature. […] Quantitation of the relative kinase activities were done using a phosphoimager (Molecular Dynamics Inc., CA).

[14] = target: myelin basic protein (MBP)

N[C@@H](Cc1ccc(OP(=O)(O)O)cc1)C(=O)O [phosphotyrosine]
inhibition of precipitation of p48 SIP kinase [1]: inhibited precipitation of the p48 SIP kinase

O=C(O)c1ccccc1O [SA, salicylic acid]
activation of p44 kinase [2]: also evident after SA treatment of tobacco plants | inhibition of the two major H2O2-scavenging enzymes [3]: can inhibit the two major H2 O2 -scavenging enzymes | increase in kinase activities with casein, histone, or BSA as substrate [4]: no increases in kinase activities were detected | tyrosine phosphorylation of 48 kDa protein [5]: transient increase in the level of a phosphotyrosine-containing 48 kDa protein | time to peak of p48 SIP kinase activation ([6]; 250 μM SA, tobacco suspension cells): ≤ 5 min | activation of 48 kDa (p48 SIP) kinase ([6]; 250 μM, tobacco suspension cells, MBP substrate): activated a 48 kDa kinase | reactivation of SIP kinase by second addition of SA ([6]; second addition up to 4 hr after initial treatment): did not reactivate the SIP kinase | minimum concentration of SA required to activate p48 kinase ([6]; tobacco suspension cells): 100 µM | concentration at which maximum p48 kinase activity obtained ([6]; tobacco suspension cells, FIG. 1E): 500 µM | activation of p48 SIP kinase by second injection ([7]; leaves first injected with water, then SA): dramatic activation of the p48 SIP kinase | activation of kinase in leaves, first (rapid) peak: return to basal level ([7]; single injection 500 μM SA): about 30 minutes | time of second, more prolonged peak of kinase activation ([7]; single injection 500 μM SA): approximately 3 hours

C=C1[C@@H](O)[C@@H]2O[C@]3(CC[C@H](/C=C/[C@@H](C)[C@@H]4CC(C)=C[C@@]5(O[C@H](C[C@@](C)(O)C(=O)O)CC[C@H]5O)O4)O3)CC[C@H]2O[C@@H]1[C@@H](O)C[C@H](C)[C@H]1O[C@@]2(CCCCO2)CC[C@H]1C [okadaic acid]
blocking of SA-mediated induction of PR-1 gene expression [8]: blocked the SA-mediated induction of PR-1 gene expression | prevention of phosphatase inactivation of SIP kinase [9]: could be prevented | inhibition of lesion formation after TMV infection [10]: lesion formation after TMV infection was inhibited

OO [H2 O2, hydrogen peroxide]
tyrosine phosphorylation of 48 kDa protein [5]: prolonged phosphorylation of tyrosine residue(s) on a 48 kDa protein | number of proteins phosphorylated on tyrosine residues [11]: at least four | activation of other kinases (58, 52, 40 kDa) [12]: induced several kinase activities | activation of p48 SIP kinase by H2O2 ([6]; 1 mM and 2 mM): induced several kinase activities including the p48 SIP kinase | kinase activity at 60 minutes after addition ([6]; 60 minutes after addition of H2 O2): remained at peak levels | duration of SIP kinase activation relative to SA ([6]; tobacco suspension cells, data not shown for analogues): more sustained compared to that induced by SA | weakly induced kinase activity bands at 200 kDa and 75 kDa [13]: weakly induced

[Na+].[Na+].[Na+].[O]=[V]([O-])([O-])[O-] [Na3 VO4]
prevention of phosphatase inactivation of SIP kinase [9]: could be prevented

p48 SIP kinase (salicylic acid-induced protein kinase), activated form from SA- or H2O2-treated tobacco cells, in extracts or purified (enzyme)
phosphorylation of MBP, in-solution kinase assay (Km for MBP) [14]: 0.19 mg/mL
